Test results taken from patent US5605895A, “Cephalosporin antibiotics and processes for preparation thereof” (Lucky, Ltd., priority 1993, dated 1997).
In brackets after ≈: the same amount, converted by molar mass. Where two headings read alike, the source gives them in different places.

Assays:
[1] = test system: P. aeruginosa 1912E; assay: Minimum inhibitory concentration, agar dilution; type: cell-based; conditions: Pseudomonas aeruginosa, 20 h, read-out: Minimum Inhibitory Concentration
Procedure: (§1) The minimum inhibitory concentration was determined by diluting the test compounds according to 2-fold dilution, suspending them in M uller-Hinton agar medium, inoculating the test strains having 10^7 CFU per 1 ml into the medium and then culturing the medium at 37° C. for 20 hours.

[2] = test system: S. marcescens 1826E; assay: Minimum inhibitory concentration, agar dilution; type: cell-based; conditions: Serratia marcescens, Muller-Hinton agar, 10^7 CFU per ml, 37° C., 20 hours
Procedure: as §1

[3] = test system: E. coli TEM1 1193E; assay: Minimum inhibitory concentration, agar dilution; type: cell-based; conditions: Escherichia coli, TEM11193E, 20 h, read-out: Minimum Inhibitory Concentration
Procedure: as §1

[4] = test system: K. aerogenes 1976E; assay: Minimum inhibitory concentration, agar dilution; type: cell-based; conditions: Klebsiella aerogenes, Muller-Hinton agar, 10^7 CFU per ml, 37° C., 20 hours
Procedure: as §1

[5] = test system: S. aureus giorigio; assay: Minimum inhibitory concentration, agar dilution; type: cell-based; conditions: Staphylococcus aureus, Muller-Hinton agar, 10^7 CFU per ml, 37° C., 20 hours
Procedure: as §1

[6] = test system: S. aureus 6538pA; assay: Minimum inhibitory concentration, agar dilution; type: cell-based; conditions: Staphylococcus aureus, Muller-Hinton agar, 10^7 CFU per ml, 37° C., 20 hours
Procedure: as §1

[7] = test system: S. typhimurium 14028A; assay: Minimum inhibitory concentration, agar dilution; type: cell-based; conditions: Salmonella enterica, read-out: Minimum Inhibitory Concentration
Procedure: as §1

[8] = test system: P. aeruginosa 6065Y; assay: Minimum inhibitory concentration, agar dilution; type: cell-based; conditions: Pseudomonas aeruginosa, 20 h, read-out: Minimum Inhibitory Concentration
Procedure: as §1

[9] = test system: P. aeruginosa 10145; assay: Minimum inhibitory concentration, agar dilution; type: cell-based; conditions: Pseudomonas aeruginosa, Muller-Hinton agar, 10^7 CFU per ml, 37° C., 20 hours
Procedure: as §1

[10] = test system: A. calcoaceticus 15473A; assay: Minimum inhibitory concentration, agar dilution; type: cell-based; conditions: Acinetobacter calcoaceticus, Muller-Hinton agar, 10^7 CFU per ml, 37° C., 20 hours
Procedure: as §1

[11] = test system: E. coli 3190Y; assay: Minimum inhibitory concentration, agar dilution; type: cell-based; conditions: Escherichia coli, read-out: Minimum Inhibitory Concentration
Procedure: as §1

[12] = test system: E. coli 10536; assay: Minimum inhibitory concentration, agar dilution; type: cell-based; conditions: read-out: Minimum Inhibitory Concentration
Procedure: as §1

[13] = test system: E. coli TEM5 3739E; assay: Minimum inhibitory concentration, agar dilution; type: cell-based; conditions: Escherichia coli, TEM53739E, 20 h, read-out: Minimum Inhibitory Concentration
Procedure: as §1

[14] = test system: E. coli TEM9 2639E; assay: Minimum inhibitory concentration, agar dilution; type: cell-based; conditions: Escherichia coli, TEM92639E, 20 h, read-out: Minimum Inhibitory Concentration
Procedure: as §1

[15] = test system: E. cloacae 1194E; assay: Minimum inhibitory concentration, agar dilution; type: cell-based; conditions: Enterobacter cloacae, read-out: Minimum Inhibitory Concentration
Procedure: as §1

[16] = test system: S. faecalis 29212A; assay: Minimum inhibitory concentration, agar dilution; type: cell-based; conditions: Enterococcus faecalis, read-out: Minimum Inhibitory Concentration
Procedure: as §1

[17] = Pharmacokinetic properties in SD rats; type: in vivo; conditions: rat; SD rats (male), intravenous, 20 mg/kg; blood, biological assay (agar well method)
Procedure: The pharmacokinetic properties of the compound of the present invention were determined using SD rats (.male.) weighing 220 to 340 g. Specifically, the test samples were administered in intravenous route in an amount of 20 mg/kg to 2 to 5 test animals. Blood was taken from femoral vein every hours after the administration and then subjected to a biological assay using agar well method to measure the blood concentration. The results of pharmacokinetic properties calculated from the above blood concentration are described in the following Table 3.

[18] = Escherichia coli, E. coli 10536, Muller-Hinton agar, 10^7 CFU per ml, 37° C., 20 hours

SMILES: CC(C)(O/N=C(\C(=O)N[C@@H]1C(=O)N2C(C(=O)[O-])=C(C[n+]3ccccc3)CS[C@H]12)c1csc(N)n1)C(=O)O [CAZ, Ceftazidime, reference compound]
- MIC [1]: 1 µg/mL (≈ 1.83 µM)
- MIC [2]: 0.25 µg/mL (≈ 0.457 µM)
- MIC [3]: 0.25 µg/mL (≈ 0.457 µM)
- MIC [4]: 0.25 µg/mL (≈ 0.457 µM)
- MIC [5]: 4 µg/mL (≈ 7.32 µM)
- MIC [6]: 16 µg/mL (≈ 29.3 µM)
- MIC ([7]; TYPHIMURIUM, 20 h): 0.25 µg/mL (≈ 0.457 µM)
- MIC [8]: 32 µg/mL (≈ 58.5 µM)
- MIC [9]: 2 µg/mL (≈ 3.66 µM)
- MIC [10]: 2 µg/mL (≈ 3.66 µM)
- MIC ([11]; 3190Y, 20 h): 0.063 µg/mL (≈ 0.115 µM)
- MIC ([12]; Escherichia coli, 10536, 20 h): 0.13 µg/mL (≈ 0.238 µM)
- MIC [13]: 8 µg/mL (≈ 14.6 µM)
- MIC [14]: > 128 µg/mL
- MIC ([15]; 1194E, 20 h): 128 µg/mL (≈ 234 µM)
- MIC ([16]; 29212A, 20 h): > 128 µg/mL

SMILES: Cc1c(N)nc(SCC2=C(C(=O)[O-])N3C(=O)C(NC(=O)/C(=N\OC(C(=O)O)c4ccc(O)c(O)c4)c4csc(N)n4)[C@H]3SC2)[n+](N)c1N (stereo partly drawn) [I-1(a), 7-[(Z)-2-(2-aminothiazol-4-yl)-2-(α-carboxy-3,4-dihydroxybenzyloxyimino)acetamido]-3-(5-methyl-1,4,6-triaminopyrimidinium-2-yl)thiomethyl-3-cephem-4-carboxylate]
- AUC [17]: 52500 ng·h/mL
- half-life [17]: 40 min
- MIC [1]: 0.5 µg/mL (≈ 0.696 µM)
- MIC [2]: 0.25 µg/mL (≈ 0.348 µM)
- MIC [3]: 0.063 µg/mL (≈ 0.0877 µM)
- MIC [4]: 0.13 µg/mL (≈ 0.181 µM)
- MIC [5]: 0.13 µg/mL (≈ 0.181 µM)
- MIC [6]: 0.25 µg/mL (≈ 0.348 µM)
- MIC ([7]; TYPHIMURIUM, 20 h): 0.063 µg/mL (≈ 0.0877 µM)
- MIC [8]: 0.5 µg/mL (≈ 0.696 µM)
- MIC [9]: 0.25 µg/mL (≈ 0.348 µM)
- MIC [10]: 0.5 µg/mL (≈ 0.696 µM)
- MIC ([11]; 3190Y, 20 h): 0.063 µg/mL (≈ 0.0877 µM)
- MIC [12, 18]: 0.013 µg/mL (≈ 0.0181 µM)
- MIC [13]: 0.25 µg/mL (≈ 0.348 µM)
- MIC [14]: 1 µg/mL (≈ 1.39 µM)
- MIC ([15]; 1194E, 20 h): 1 µg/mL (≈ 1.39 µM)
- MIC ([16]; 29212A, 20 h): 16 µg/mL (≈ 22.3 µM)

SMILES: C[n+]1c(N)cc(N)nc1SCC1=C(C(=O)[O-])N2C(=O)C(NC(=O)C(=NOC(C(=O)O)c3ccc(O)c(O)c3)c3csc(N)n3)C2SC1 (stereo not drawn) [I-3(a), 7-[(Z)-2-(2-aminothiazol-4-yl)-2-(α-carboxy-3,4-dihydroxybenzyloximio)acetamido]-3-(4,6-diamino-1-methylpyrimidinium-2-yl)thiomethyl-3-cephem-4-carboxylate]
- AUC [17]: 55400 ng·h/mL
- half-life [17]: 53 min
- MIC [1]: 0.5 µg/mL (≈ 0.71 µM)
- MIC [2]: 0.5 µg/mL (≈ 0.71 µM)
- MIC [3]: 0.063 µg/mL (≈ 0.0895 µM)
- MIC [4]: 0.25 µg/mL (≈ 0.355 µM)
- MIC [5]: 0.5 µg/mL (≈ 0.71 µM)
- MIC [6]: 0.5 µg/mL (≈ 0.71 µM)
- MIC ([7]; TYPHIMURIUM, 20 h): 0.063 µg/mL (≈ 0.0895 µM)
- MIC [8]: 1 µg/mL (≈ 1.42 µM)
- MIC [9]: 0.5 µg/mL (≈ 0.71 µM)
- MIC [10]: 0.5 µg/mL (≈ 0.71 µM)
- MIC ([11]; E. coli 3190Y, Muller-Hinton agar, 10^7 CFU per ml, 37° C., 20 hours): 0.031 µg/mL (≈ 0.0441 µM)
- MIC ([12]; Escherichia coli, 10536, 20 h): 0.063 µg/mL (≈ 0.0895 µM)
- MIC [13]: 0.5 µg/mL (≈ 0.71 µM)
- MIC [14]: 4 µg/mL (≈ 5.68 µM)
- MIC ([15]; E. cloacae 1194E, Muller-Hinton agar, 10^7 CFU per ml, 37° C., 20 hours): 8 µg/mL (≈ 11.4 µM)
- MIC ([16]; 29212A, 20 h): 32 µg/mL (≈ 45.5 µM)

SMILES: Nc1cc[n+](N)c(SCC2=C(C(=O)[O-])N3C(=O)C(NC(=O)C(=NOC(C(=O)O)c4ccc(O)c(O)c4)c4csc(N)n4)C3SC2)n1 (stereo not drawn) [I-4(a), 7-[(Z)-2-(2-aminothiazol-4-yl)-2-(α-carboxy-3,4-dihydroxybenzyloxyimino)acetamide]-3-(1,4-diaminopyrimidinium-2-yl)thiomethyl-3-cephem-4-carboxylate]
- AUC [17]: 52900 ng·h/mL
- half-life [17]: 50 min
- MIC [1]: 0.25 µg/mL (≈ 0.362 µM)
- MIC [2]: 0.25 µg/mL (≈ 0.362 µM)
- MIC [3]: 0.063 µg/mL (≈ 0.0913 µM)
- MIC [4]: 0.13 µg/mL (≈ 0.188 µM)
- MIC [5]: 0.5 µg/mL (≈ 0.725 µM)
- MIC [6]: 1 µg/mL (≈ 1.45 µM)
- MIC ([7]; S. typhimurium 14028A, Muller-Hinton agar, 10^7 CFU per ml, 37° C., 20 hours): 0.031 µg/mL (≈ 0.0449 µM)
- MIC [8]: 0.5 µg/mL (≈ 0.725 µM)
- MIC [9]: 0.25 µg/mL (≈ 0.362 µM)
- MIC [10]: 0.25 µg/mL (≈ 0.362 µM)
- MIC ([11]; 3190Y, 20 h): 0.063 µg/mL (≈ 0.0913 µM)
- MIC [12, 18]: 0.016 µg/mL (≈ 0.0232 µM)
- MIC [13]: 0.5 µg/mL (≈ 0.725 µM)
- MIC [14]: 1 µg/mL (≈ 1.45 µM)
- MIC ([15]; 1194E, 20 h): 1 µg/mL (≈ 1.45 µM)
- MIC ([16]; S. faecalis 29212A, Muller-Hinton agar, 10^7 CFU per ml, 37° C., 20 hours): 64 µg/mL (≈ 92.8 µM)
